Results reported in patent publication US20260258035A1, “FIVE-MEMBERED AND SIX-MEMBERED NITROGEN-CONTAINING COMPOUND, AND INTERMEDIATE, PREPARATION METHOD AND USE THEREOF” (HANGZHOU SYNRX THERAPEUTICS BIOMEDICAL TECHNOLOGY CO., LTD., priority 2022, published 2026).
Converted amounts (≈) assume the structure as drawn. Read-outs that look alike come from different tables or passages of the source.

Key:
HCC1806 = assay: Cell viability assay (CellTiter-Glo); format: cell-based, Human; conditions: Homo sapiens, HCC1806, 168 h, HCC1806, 7 days, CellTiter-Glo; read-out: IC50 (nM) in cell viability assay
PARG = PARG (Homo sapiens, UniProt Q86W56); assay: Biochemical assay (PARG, TFMU-ADPr substrate); conditions: PARG, TFMU-ADPr substrate
[1] = Solubility assay (FaSSGF / FaSSIF); format: physicochemical; conditions: kinetic from dmso stock, 2 h at 25° C.
Method: 1). Preparation of Solutions:
The FaSSGF solution was prepared as follows: • a) preparation of FaSSGF buffer: dissolve 2.0 g of NaCl as the raw material in about 0.9 L of purified water; • b) adjustment of the pH of the buffer: adjust the pH of the buffer to 1.6 with 1N HCL, and replenish the buffer with purified water to the volume of 1 L; and • c) preparation of FaSSGF solution by addition of FaSSGF powder: add 0.06 g of the FaSSGF powder to about 0.5 L of the buffer, stir until the powder was completely dissolved, and make up for the volume (1 L) with the buffer.
The FaSSIF solution was prepared as follows: • a) preparation of FaSSIF buffer: dissolve 0.42 g of NaOH, 3.44 g of anhydrous NaH2PO4, and 6.19 g of NaCl as raw materials in about 0.9 L of purified water; • b) adjustment the pH of the buffer: adjust the pH of the buffer to 6.5 with 1 N NaOH or 1 N HCL, and replenish the buffer with purified water to the volume of 1 L; and • c) preparation of FaSSIF solution by addition of FaSSIF powder: add 2.24 g of the FaSSIF powder to about 0.5 L of the buffer, stir until the powder was completely dissolved, and make up for the volume (1 L) with the buffer.
2). Preparation of the Solution of Control Compound:
The control compound was weighed and dissolved in DMSO to 10 mM to obtain a stock solution.
3) Preparation of the Solution of Compound to be Tested:
The compound to be tested was formulated into a 10 mM DMSO stock solution.
4) Preparation of Internal Standard Solution:
a) The internal standard was weighed and dissolved in DMSO to 10 mM to obtain an internal standard stock solution (ISTD stock solution).
b) The internal standard stock solution was diluted to 500 nM (Tolbutamide) with an ACN:methano mixture (volume ratio: 1:1) to obtain a quenching solution.
a) The FaSSGF solution at pH 1.6 and the FaSSIF solution at pH 6.5 were pre-warmed; and then, the compound was injected into the buffer.
Once done, the samples were centrifuged at 12,000 rpm for 10 min, and the supernatant was transferred to a new tube. The supernatant was diluted 10-fold and 100-fold with the FaSSGF solution at pH 1.6 or the FaSSIIF solution at pH 6.5. 20 μL of each sample (1×, 10×, 100× and standard curve) was added to 500 μL of the IS solution. The resulting mixture was vortexed vigorously for 1 min and centrifuged at 4,500 rpm for 15 min at 4° C. 150 μL of the supernatant was transferred for LC-MS/MS sample analysis.

PXR = target: T1, PXR (Homo sapiens, UniProt O75469); assay: PXR assay (DPX2 luciferase reporter cells); format: cell-based; conditions: 24 h; for PXR Activation @30 uM (% Ctrl): positive control rifampicin
T1 construct: host or cells: DPX2 (HepG2)
T1 sequence (O75469 1-434): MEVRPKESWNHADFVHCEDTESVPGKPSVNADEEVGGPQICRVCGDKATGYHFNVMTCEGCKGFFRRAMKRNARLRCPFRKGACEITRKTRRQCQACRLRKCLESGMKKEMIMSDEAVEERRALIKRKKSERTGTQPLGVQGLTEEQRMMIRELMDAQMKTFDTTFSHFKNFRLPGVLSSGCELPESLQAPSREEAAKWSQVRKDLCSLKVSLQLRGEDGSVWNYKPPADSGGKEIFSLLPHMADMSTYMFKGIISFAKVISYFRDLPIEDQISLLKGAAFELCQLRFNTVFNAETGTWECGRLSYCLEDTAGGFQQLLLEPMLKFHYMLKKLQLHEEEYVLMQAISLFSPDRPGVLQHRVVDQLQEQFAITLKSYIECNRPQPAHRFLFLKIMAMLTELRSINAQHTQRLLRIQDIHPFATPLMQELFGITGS
Method: 1) Information of Cell Line
DPX2 (HepG2 cells stably transfected with PXR and luciferase reporter) cells were purchased from Puracyp Inc (Carlsbad, CA).
2) Experimental Procedures a) Reagents and Consumables
The DPX2 cells were cultured in the growth medium containing 1000 fetal bovine serum. The DPX2 cells in a T-75 flask were cultured in the […] incubator at 37° C. with 950% relative humidity, and digested when the cells grew to cover 80-90% of the bottom of the flask.
The surface layer of the T-75 cultured cells was washed with 10 mL of PBS; PBS was pipetted; 3-5 mL of tryp sin was added; the cells were digested at 37° C. for 5 minutes or until the cells were digested to be suspended; and excessive medium containing fetal bovine serum was added to stop trypsinization. The cell suspension was transferred to a conical-bottomed centrifuge tube and centrifuged at 150 g rpm for 5 minutes at room temperature; the supernatant was carefully pipetted; and the cells were resuspended with the treatment medium, with the concentration adjusted to 3.2×10^5 cells/mL (incubation time: 24 hours, plate seeding density: […]). 25 μL of the cell suspension was added to each well of the 384-well cell culture plate.
The cell culture plate was placed and cultured for 24 h in the […] incubator with 9500 humidity at 37° C. c) Formulation of Compound
The stock solution of each of 1000× test compound, the positive control (rifampicin), and the negative control (propranolol) was prepared with DMSO. The final concentrations of the positive control (rifampicin) were 1 μM and 10 μM, and the final concentration of the negative control (propranolol) was 10 μM. The final concentrations of the test compound were 10 μM, 1 μM, 0.1 μM, or EC50 (30 μM, 10 μM, 3 μM, 1 μM, 0.3 μM, 0.1 μM). The final concentration of DMSO was 0.10. The cell culture plate was taken out from the incubator, and 25 nL of the stock solution of the positive control, negative control or test compound was directly added with Echo, each with three parallel concentrations. The cell culture plate was placed in the incubator and continued to be incubated for 24 h. Before starting the assay with the substrate, the cell morphology and the monolayer integrity were checked to ensure that the monolayer was of acceptable research quality. […]
d) Quantitative Detection with PXR Activation
After 24 hours of dosing, the culture could be quantitatively detected with PXR activation. The CellTiter-Fluor™ Cell Viability Assay Kit and One-Glo Luciferase reagent were equilibrated to room temperature. The GF-AFC substrate (10 μL) was added to the assay buffer (10 ml) to develop a 2× reagent, which was then diluted into a 1× reagent with 10 ml of PBS. The ONE-Glo Luciferase substrate was added to the ONE-Glo Luciferase assay buffer. The culture plate was taken out from the incubator; the medium was discarded; 1× of CellTiter-Fluor™ reagent was poured into the loading slot; 25 μL of reagent were added per well to the culture plate with a pipetting workstation; and the culture plate was then incubated in the incubator for 30 minutes. The cell culture plate was taken out from the incubator, and cooled slightly to room temperature; and the fluorescence value was determined with a fully automatic quantitative microplate reader, with the excitation light of 400 nm and the emission light of 505 nm. The ONE-Glo reagent was poured into the loading slot, with 25 μL per well, and the resulting mixture was gently mixed in the plate, and incubated at room temperature for 5 minutes to determine the luminescence value.

[2] = fassgf or other biorelevant, FaSSGF solution pH 1.6, 100 μM from DMSO stock, read-out: FaSSGF solubility
[3] = FaSSIF solution pH 6.5, 100 μM from DMSO stock, read-out: FaSSIF solubility

PARG, sequence (Q86W56 whole entry): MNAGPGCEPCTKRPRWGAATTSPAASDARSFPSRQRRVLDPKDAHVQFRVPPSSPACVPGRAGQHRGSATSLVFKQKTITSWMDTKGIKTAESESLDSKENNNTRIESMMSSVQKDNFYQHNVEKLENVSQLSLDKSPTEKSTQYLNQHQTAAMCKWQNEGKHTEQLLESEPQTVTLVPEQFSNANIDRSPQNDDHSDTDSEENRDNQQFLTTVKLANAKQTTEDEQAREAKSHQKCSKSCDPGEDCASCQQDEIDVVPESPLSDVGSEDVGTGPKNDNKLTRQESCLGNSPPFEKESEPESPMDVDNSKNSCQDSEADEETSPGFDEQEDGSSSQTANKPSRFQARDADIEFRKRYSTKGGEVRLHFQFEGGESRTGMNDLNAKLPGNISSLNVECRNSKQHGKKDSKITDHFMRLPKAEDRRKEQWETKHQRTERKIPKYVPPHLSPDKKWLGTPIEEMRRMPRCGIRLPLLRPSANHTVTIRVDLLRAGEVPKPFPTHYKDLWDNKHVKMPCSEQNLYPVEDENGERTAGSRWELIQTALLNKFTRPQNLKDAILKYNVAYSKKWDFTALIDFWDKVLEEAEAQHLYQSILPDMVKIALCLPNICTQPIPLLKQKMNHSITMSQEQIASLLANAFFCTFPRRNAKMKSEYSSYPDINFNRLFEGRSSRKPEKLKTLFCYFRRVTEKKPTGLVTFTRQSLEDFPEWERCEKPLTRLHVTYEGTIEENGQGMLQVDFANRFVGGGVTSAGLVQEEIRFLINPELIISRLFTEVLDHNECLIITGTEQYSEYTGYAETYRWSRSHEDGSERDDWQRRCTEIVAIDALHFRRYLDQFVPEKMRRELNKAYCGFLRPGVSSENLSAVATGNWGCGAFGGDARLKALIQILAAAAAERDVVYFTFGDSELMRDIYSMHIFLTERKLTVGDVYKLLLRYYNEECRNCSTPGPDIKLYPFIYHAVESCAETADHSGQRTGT

SMILES	IC50 (HCC1806) [nM]	IC50 (PARG) [nM]	solubility at 2 h [1, 2] [µM]	solubility at 2 h [1, 3] [µM]	PXR Activation @30 uM (Fold) (PXR)	PXR Activation @30 uM (% Ctrl) (PXR)
CC1(NS(=O)(=O)c2cc(N3CCN(C(=O)C4CC4)CC3)c3cnc(-c4nnc(C(F)(F)F)s4)n3c2)COC1 [Example 175, 8-(4-(cyclopropanecarbonyl)piperazin-1-yl)-N-(3-methyloxetan-3-yl)-3-(5-(trifluoromethyl)-1,3,4-thiadiazol-2-yl)imidazo[1,5-a]pyridine-6-sulfonamide]	565	18.2	21.5 (≈ 12.3 µg/mL)	97.2 (≈ 55.6 µg/mL)	–	–
CN(C)C(=O)N1CCN(c2cc(S(=O)(=O)NC3(C#N)CC3)cn3c(-c4nnc(C(F)(F)F)s4)ncc23)CC1 [Example 227, 4-(6-(N-(1-cyanocyclopropyl)sulfamoyl)-3-(5-(trifluoromethyl)-1,3,4-thiadiazol-2-yl)imidazo[1,5-a]pyridin-8-yl)-N,N-dimethylpiperazine-1-carboxamide]	300	5.01	73.8 (≈ 42 µg/mL)	82.4 (≈ 46.9 µg/mL)	–	–
CC(C)C(=O)N1CCN(c2cc(S(=O)(=O)NC3(C)COC3)cn3c(-c4nnc(C(F)F)s4)nc(Cl)c23)C[C@H]1C [Example 124, (R)-1-chloro-3-(5-(difluoromethyl)-1,3,4-thiadiazol-2-yl)-8-(4-isobutyryl-3-methylpiperazin-1-yl)-N-(3-methyloxetan-3-yl)imidazo[1,5-a]pyridine-6-sulfonamide]	759	2.54	38.5 (≈ 23.3 µg/mL)	88.2 (≈ 53.3 µg/mL)	–	–
CN1CC[C@H]1C(=O)N1CCN(c2cc(S(=O)(=O)NC3(C)CC3)cn3c(-c4nnc(C(F)(F)F)s4)ncc23)CC1 [Example 285, (S)-8-(4-(1-methylazetidine-2-carbonyl)piperazin-1-yl)-N-(1-methylcyclopropyl)-3-(5-(trifluoromethyl)-1,3,4-thiadiazol-2-yl)imidazo[1,5-a]pyridine-6-sulfonamide]	246	20	–	–	1.7	10
CN1CCC1(C)C(=O)N1CCN(c2cc(S(=O)(=O)NC3(C)CC3)cn3c(-c4nnc(C(F)(F)F)s4)ncc23)CC1 (stereo not drawn) [Example 330, 8-(4-(1,2-dimethylazetidine-2-carbonyl)piperazin-1-yl)-N-(1-methylcyclopropyl)-3-(5-(trifluoromethyl)-1,3,4-thiadiazol-2-yl)imidazo[1,5-a]pyridine-6-sulfonamide]	194	6.55	–	–	1.3	9
C[C@H]1CN(c2cc(S(=O)(=O)NC3(C)COC3)cn3c(-c4nnc(C(F)F)s4)ncc23)C[C@H](C)N1 [Example 179, 3-(5-(difluoromethyl)-1,3,4-thiadiazol-2-yl)-8-((3S,5S)-3,5-dimethylpiperazin-1-yl)-N-(3-methyloxetan-3-yl)imidazo[1,5-a]pyridine-6-sulfonamide]	24	0.35	–	–	3.2	22
CN1CC[C@@H]1C(=O)N1CCN(c2cc(S(=O)(=O)NC3(C)CC3)cn3c(-c4nnc(C(F)(F)F)s4)ncc23)CC1 [Example 287, (R)-8-(4-(1-methylazetidine-2-carbonyl)piperazin-1-yl)-N-(1-methylcyclopropyl)-3-(5-(trifluoromethyl)-1,3,4-thiadiazol-2-yl)imidazo[1,5-a]pyridine-6-sulfonamide]	137	4.37	–	–	1.6	15
CC1(NS(=O)(=O)c2cc(N3CCN(C(=O)[C@@H]4CCN4)CC3)c3cnc(-c4nnc(C(F)(F)F)s4)n3c2)CC1 [Example 284, (S)-8-(4-(azetidine-2-carbonyl)piperazin-1-yl)-N-(1-methylcyclopropyl)-3-(5-(trifluoromethyl)-1,3,4-thiadiazol-2-yl)imidazo[1,5-a]pyridine-6-sulfonamide]	310	16.6	–	–	1.1	7
CC1(C(=O)N2CCN(c3cc(S(=O)(=O)NC4(C#N)CC4)cn4c(-c5nnc(C(F)(F)F)s5)ncc34)CC2)CCCO1 (stereo not drawn) [Example 298, N-(1-cyanocyclopropyl)-8-(4-(2-methyltetrahydrofuran-2-carbonyl)piperazin-1-yl)-3-(5-(trifluoromethyl)-1,3,4-thiadiazol-2-yl)imidazo[1,5-a]pyridine-6-sulfonamide]	175	19.1	> 100	97.7 (≈ 59.7 µg/mL)	–	–
